# Columns and labels:
# Assay type in all cases: cell-based
# [1] = tested on: Entercoccus faecalis 2041; test: MIC, standard broth micro-dilution assay
# Description: (§1) The formula I compounds have in vitro and in vivo activity against Gram-positive pathogenic bacteria. The MIC's were determined using a standard broth micro-dilution assay.
# Entercoccus faecalis 276 = test: MIC, standard broth micro-dilution assay
# Description: as §1
# [2] = tested on: Entercoccus gallinarum 245; test: MIC, standard broth micro-dilution assay
# Description: as §1
# [3] = tested on: Staphylococcus aureus SA1199; test: MIC, standard broth micro-dilution assay
# Description: (§2) The MIC's were determined using a standard broth micro-dilution assay.
# [4] = tested on: Haemophilus influenzae RD; test: MIC, standard broth micro-dilution assay
# Description: as §2
# [5] = tested on: Staphylococcus aureus SA1199B
# Description: as §2
# [6] = tested on: Staphylococcus aureus S13E
# Description: as §2
# Pedicoccus acidilacti = test: MIC, agar dilution on brain-heart infusion agar; settings: Pedioccccus acidilacti (mean of 10)
# [7] = tested on: Leuconostoc mesenteroides; test: MIC, agar dilution on brain-heart infusion agar; settings: Leuconostoc mesenteroides (mean of 4)
# Pediococcus pentosaceus = test: MIC, agar dilution on brain-heart infusion agar; settings: Pediococcus pentosaceus (mean of 2)
# [8] = tested on: Staphylococcus aureus 491; test: MIC, standard broth micro-dilution assay
# Description: as §2
# Leuconostoc lactis = test: MIC, agar dilution on brain-heart infusion agar; settings: Leuconostoc lactis (mean of 2)
# [9] = tested on: Staphylococcus epidermidis 270; test: MIC, standard broth micro-dilution assay
# Description: as §2
# Lactobacillus confusus = test: MIC, agar dilution on brain-heart infusion agar
# Entercoccus faecium 180 = test: MIC, standard broth micro-dilution assay
# Description: as §2
# [10] = tested on: Staphylococcus aureus 489; test: MIC, standard broth micro-dilution assay
# Description: as §2
# [11] = tested on: Staphylococcus aureus X400; test: MIC, standard broth micro-dilution assay
# Description: as §2
# [12] = tested on: Staphylococcus aureus SA1199A; test: MIC, standard broth micro-dilution assay
# Description: as §2
# [13] = tested on: Staphylococcus aureus 446; test: MIC, standard broth micro-dilution assay
# Description: as §2
# [14] = tested on: Staphylococcus haemolyticus 105; test: MIC, standard broth micro-dilution assay
# Description: as §2
# [15] = tested on: Staphylococcus aureus X778; test: MIC, standard broth micro-dilution assay
# Description: as §2
# [16] = tested on: Staphylococcus haemolyticus 415; test: MIC, standard broth micro-dilution assay
# Description: as §2
# [17] = tested on: Entercoccus faecium 180-1; test: MIC, standard broth micro-dilution assay
# Description: as §2
# [18] = tested on: Staphylococcus aureus 447; test: MIC, standard broth micro-dilution assay
# Description: as §2
Compound,MIC [1] [mg/L],MIC (Entercoccus faecalis 276) [mg/L],MIC [2] [mg/L],MIC (Pedicoccus acidilacti) [mg/L],further results
"CNC(CC(C)C)C(=O)NC1C(=O)NC(CC(N)=O)C(=O)NC2C(=O)NC3C(=O)NC(C(=O)NC(C(=O)O)c4cc(O)cc(O)c4-c4cc3ccc4O)C(OC3CC(C)(N)C(O)C(C)O3)c3ccc(c(Cl)c3)Oc3cc2cc(c3OC2OC(CO)C(O)C(O)C2OC2CC(C)(NCc3ccc(Oc4ccc([N+](=O)[O-])cc4)cc3)C(O)C(C)O2)Oc2ccc(cc2Cl)C1O (centres unmarked) [Compound 57, 4-[4-nitrophenoxy]benzyl]",≤ 0.06,0.5,2,–,MIC [3]: 1 mg/L
CNC(CC(C)C)C(=O)NC1C(=O)NC(CC(N)=O)C(=O)NC2C(=O)NC3C(=O)NC(C(=O)NC(C(=O)O)c4cc(O)cc(O)c4-c4cc3ccc4O)C(OC3CC(C)(N)C(O)C(C)O3)c3ccc(c(Cl)c3)Oc3cc2cc(c3OC2OC(CO)C(O)C(O)C2OC2CC(C)(NCc3ccc4cc(C)ccc4c3)C(O)C(C)O2)Oc2ccc(cc2Cl)C1O (centres unmarked) [Compound 189],≤ 0.06,–,1,–,MIC [4]: > 64 mg/L
4-[2-[2-thiopropyl]ethoxy]benzyl [Compound 134],0.25,1,4,–,MIC [5]: 2 mg/L; MIC [6]: 2 mg/L
"CNC(CC(C)C)C(=O)NC1C(=O)NC(CC(N)=O)C(=O)NC2C(=O)NC3C(=O)NC(C(=O)NC(C(=O)O)c4cc(O)cc(O)c4-c4cc3ccc4O)C(OC3CC(C)(N)C(O)C(C)O3)c3ccc(c(Cl)c3)Oc3cc2cc(c3OC2OC(CO)C(O)C(O)C2OC2CC(C)(NCc3ccc(OCc4ccccc4)c(OC)c3)C(O)C(C)O2)Oc2ccc(cc2Cl)C1O (centres unmarked) [Compound 52, 4-benzyloxy-3-methoxybenzyl]",0.5,–,1,55,MIC [7]: 76 mg/L
4-[2-chloro-6-fluorobenzyloxy]benzyl [Compound 80],≤ 0.06,≤ 0.06,≤ 0.06,–,MIC [5]: 1 mg/L; MIC [6]: 1 mg/L
"CNC(CC(C)C)C(=O)NC1C(=O)NC(CC(N)=O)C(=O)NC2C(=O)NC3C(=O)NC(C(=O)NC(C(=O)O)c4cc(O)cc(O)c4-c4cc3ccc4O)C(OC3CC(C)(N)C(O)C(C)O3)c3ccc(c(Cl)c3)Oc3cc2cc(c3OC2OC(CO)C(O)C(O)C2OC2CC(C)(NCc3ccc(NC(=O)c4cccc(F)c4)cc3)C(O)C(C)O2)Oc2ccc(cc2Cl)C1O (centres unmarked) [Compound 194, 4-[(3-fluorobenzoyl)amino]benzyl]",≤ 0.06,–,2,–,MIC [4]: 32 mg/L
2-[4-chlorophenyl]-6-benzoxazolemethyl [Compound 116],≤ 0.06,0.25,4,–,MIC [5]: 0.5 mg/L; MIC [6]: 1 mg/L
"CNC(CC(C)C)C(=O)NC1C(=O)NC(CC(N)=O)C(=O)NC2C(=O)NC3C(=O)NC(C(=O)NC(C(=O)O)c4cc(O)cc(O)c4-c4cc3ccc4O)C(OC3CC(C)(N)C(O)C(C)O3)c3ccc(c(Cl)c3)Oc3cc2cc(c3OC2OC(CO)C(O)C(O)C2OC2CC(C)(NCc3cc(OCc4ccccc4)ccc3OC)C(O)C(C)O2)Oc2ccc(cc2Cl)C1O (centres unmarked) [Compound 51, 3-benzyloxy-6-methoxy benzyl]",≤ 0.06,≤ 0.06,1,87,MIC [7]: 76 mg/L; MIC (Pediococcus pentosaceus): 91 mg/L
"C=CCCCCCCCCCNC1(C)CC(OC2C(Oc3c4cc5cc3Oc3ccc(cc3Cl)C(OC3CC(C)(N)C(O)C(C)O3)C3NC(=O)C(NC(=O)C5NC(=O)C(CC(N)=O)NC(=O)C(NC(=O)C(CC(C)C)NC)C(O)c5ccc(c(Cl)c5)O4)c4ccc(O)c(c4)-c4c(O)cc(O)cc4C(C(=O)O)NC3=O)OC(CO)C(O)C2O)OC(C)C1O (centres unmarked) [Compound 204, 10-undecenyl]",≤ 0.06,≤ 0.06,–,–,MIC [8]: ≤ 0.06 mg/L
"CNC(CC(C)C)C(=O)NC1C(=O)NC(CC(N)=O)C(=O)NC2C(=O)NC3C(=O)NC(C(=O)NC(C(=O)O)c4cc(O)cc(O)c4-c4cc3ccc4O)C(OC3CC(C)(N)C(O)C(C)O3)c3ccc(c(Cl)c3)Oc3cc2cc(c3OC2OC(CO)C(O)C(O)C2OC2CC(C)(NCc3ccc4ccccc4c3)C(O)C(C)O2)Oc2ccc(cc2Cl)C1O (centres unmarked) [Compound 1, 2-naphthylmethyl]",–,≤ 0.06,4,18,MIC (Leuconostoc lactis): 23 mg/L; MIC (Pediococcus pentosaceus): 23 mg/L
CNC(CC(C)C)C(=O)NC1C(=O)NC(CC(N)=O)C(=O)NC2C(=O)NC3C(=O)NC(C(=O)NC(C(=O)O)c4cc(O)cc(O)c4-c4cc3ccc4O)C(OC3CC(C)(N)C(O)C(C)O3)c3ccc(c(Cl)c3)Oc3cc2cc(c3OC2OC(CO)C(O)C(O)C2OC2CC(C)(NCc3ccc(-c4ccccc4C)cc3)C(O)C(C)O2)Oc2ccc(cc2Cl)C1O (centres unmarked) [Compound 209],≤ 0.06,–,1,–,MIC [9]: 0.125 mg/L
"CNC(CC(C)C)C(=O)NC1C(=O)NC(CC(N)=O)C(=O)NC2C(=O)NC3C(=O)NC(C(=O)NC(C(=O)O)c4cc(O)cc(O)c4-c4cc3ccc4O)C(OC3CC(C)(N)C(O)C(C)O3)c3ccc(c(Cl)c3)Oc3cc2cc(c3OC2OC(CO)C(O)C(O)C2OC2CC(C)(NCc3cccc4c3oc3ccccc34)C(O)C(C)O2)Oc2ccc(cc2Cl)C1O (centres unmarked) [Compound 39, 4-[1-oxa]fluorenylmethyl]",≤ 0.06,≤ 0.06,≤ 0.06,26,MIC (Leuconostoc lactis): 32 mg/L; MIC (Lactobacillus confusus): 32 mg/L; MIC [7]: 32 mg/L; MIC (Pediococcus pentosaceus): 32 mg/L
CNC(CC(C)C)C(=O)NC1C(=O)NC(CC(N)=O)C(=O)NC2C(=O)NC3C(=O)NC(C(=O)NC(C(=O)O)c4cc(O)cc(O)c4-c4cc3ccc4O)C(OC3CC(C)(N)C(O)C(C)O3)c3ccc(c(Cl)c3)Oc3cc2cc(c3OC2OC(CO)C(O)C(O)C2OC2CC(C)(NCCCCCCCCOc3ccc(Oc4ccccc4)cc3)C(O)C(C)O2)Oc2ccc(cc2Cl)C1O (centres unmarked) [Compound 202],1,4,8,–,MIC [8]: 8 mg/L
"CNC(CC(C)C)C(=O)NC1C(=O)NC(CC(N)=O)C(=O)NC2C(=O)NC3C(=O)NC(C(=O)NC(C(=O)O)c4cc(O)cc(O)c4-c4cc3ccc4O)C(OC3CC(C)(N)C(O)C(C)O3)c3ccc(c(Cl)c3)Oc3cc2cc(c3OC2OC(CO)C(O)C(O)C2OC2CC(C)(NCc3cccc4c3OCO4)C(O)C(C)O2)Oc2ccc(cc2Cl)C1O (centres unmarked) [Compound 58, 2,3-methylenedioxybenzyl]",0.5,0.5,0.5,55,MIC [3]: 1 mg/L
CNC(CC(C)C)C(=O)NC1C(=O)NC(CC(N)=O)C(=O)NC2C(=O)NC3C(=O)NC(C(=O)NC(C(=O)O)c4cc(O)cc(O)c4-c4cc3ccc4O)C(OC3CC(C)(N)C(O)C(C)O3)c3ccc(c(Cl)c3)Oc3cc2cc(c3OC2OC(CO)C(O)C(O)C2OC2CC(C)(NCc3ccc4c(c3)OCCO4)C(O)C(C)O2)Oc2ccc(cc2Cl)C1O (centres unmarked) [Compound 56],0.25,0.25,16,–,MIC [3]: 0.5 mg/L
"CNC(CC(C)C)C(=O)NC1C(=O)NC(CC(N)=O)C(=O)NC2C(=O)NC3C(=O)NC(C(=O)NC(C(=O)O)c4cc(O)cc(O)c4-c4cc3ccc4O)C(OC3CC(C)(N)C(O)C(C)O3)c3ccc(c(Cl)c3)Oc3cc2cc(c3OC2OC(CO)C(O)C(O)C2OC2CC(C)(NCc3ccc(C(O)c4ccccc4)cc3)C(O)C(C)O2)Oc2ccc(cc2Cl)C1O (stereo not drawn) [Compound 109, 4-[alpha-hydroxybenzyl]benzyl]",≤ 0.06,≤ 0.06,≤ 0.06,–,MIC [5]: 0.5 mg/L; MIC [6]: 0.25 mg/L; MIC [8]: 0.25 mg/L; MIC (Entercoccus faecium 180): 0.25 mg/L; MIC [4]: 32 mg/L; MIC [10]: ≤ 0.06 mg/L; MIC [11]: ≤ 0.06 mg/L; MIC [12]: ≤ 0.06 mg/L; MIC [13]: 1 mg/L; MIC [14]: 1 mg/L; MIC [15]: ≤ 0.06 mg/L; MIC [9]: 0.25 mg/L; MIC [16]: 4 mg/L; MIC [17]: ≤ 0.06 mg/L; MIC [18]: 1 mg/L; MIC [3]: ≤ 0.06 mg/L

# — US5843889A, “Glycopeptide antibiotic derivatives” (Eli Lilly and Company, priority 1997, dated 1998)
